Laboratory results from patent US4266001A, “Light-sensitive mixture” (Hoechst Aktiengesellschaft, priority 1978, dated 1981).

Experiment: Solubility of naphthoquinone diazides in ethylene glycol monomethyl ether
Type: physicochemical
Settings: for Solubility (%): 26° C., stirred for 2 hours, 2 g in 50 g, crystalline samples, substantially free from amorphous fractions; for solubility (in words): Table 2
Method: The solubility of the new naphthoquinone diazides, as compared with the known bis-1,2-naphthoquinone-2-diazide-5-sulfonic acid ester of 2,2-bis-(4-hydroxyphenyl)-propane (comparison compound V), was determined as follows: 2 g of the naphthoquinone diazide were suspended in each case in 50 g of ethylene glycol monomethyl ether and stirred for 2 hours at 26° C. Then, the mixture was filtered by suction, the filter residue was washed successively with 10 cm^3 of methanol and 10 cm^3 of ether and dried in vacuo and its weight was determined. The solubilities in ethylene glycol monomethyl ether, listed in Table 2, were calculated from the difference to the quantity employed: […]
In all cases, it was confirmed by diffraction diagrams taken with an X-ray diffractometer that the samples tested were substantially free from amorphous fractions. In every case, the solubility of a solid compound which is wholly or partially present in the amorphous state is markedly higher than that of the corresponding crystalline compound. A comparison with these values is, however, unreliable because the solubilities of amorphous compounds cannot be determined with exact reproducibility due to the differing tendency of supersaturated solutions to crystallize.

Row | Solubility (%) | solubility (in words) | Compound
1 | > 7.4% | very good solubility | CCCCOC(=O)C(c1ccc(OS(=O)(=O)c2cccc3c2C=CC(=[N+]=[N-])C3=O)cc1)c1ccc(OS(=O)(=O)c2cccc3c2C=CC(=[N+]=[N-])C3=O)cc1 (centres unmarked) [Compound 20]
2 | 6.0% | very good solubility | CCOCCOC(=O)C(c1ccc(OS(=O)(=O)c2cccc3c2C=CC(=[N+]=[N-])C3=O)cc1)c1ccc(OS(=O)(=O)c2cccc3c2C=CC(=[N+]=[N-])C3=O)cc1 (centres unmarked) [Compound 22]
3 | 0.75% | – | CC(C)(c1ccc(OS(=O)(=O)c2cccc3c2C=CC(=[N+]=[N-])C3=O)cc1)c1ccc(OS(=O)(=O)c2cccc3c2C=CC(=[N+]=[N-])C3=O)cc1 [V, bis-1,2-naphthoquinone-2-diazide-5-sulfonic acid ester of 2,2-bis-(4-hydroxyphenyl)-propane, reference compound]

The next lines start with the compound.

Row | Compound | Solubility (%) | solubility (in words)
4 | COC(=O)CCC(C)(c1ccc(OS(=O)(=O)c2cccc3c2C=CC(=[N+]=[N-])C3=O)cc1)c1ccc(OS(=O)(=O)c2cccc3c2C=CC(=[N+]=[N-])C3=O)cc1 (centres unmarked) [Compound 2] | 1.85% | very good solubility
5 | CCOC(=O)CCC(C)(c1ccc(OS(=O)(=O)c2cccc3c2C=CC(=[N+]=[N-])C3=O)cc1)c1ccc(OS(=O)(=O)c2cccc3c2C=CC(=[N+]=[N-])C3=O)cc1 (centres unmarked) [Compound 3] | 0.86% | –
6 | COCCOC(=O)CCC(C)(c1ccc(OS(=O)(=O)c2cccc3c2C=CC(=[N+]=[N-])C3=O)cc1)c1ccc(OS(=O)(=O)c2cccc3c2C=CC(=[N+]=[N-])C3=O)cc1 (centres unmarked) [Compound 7] | 0.91% | –
7 | CCOCCOC(=O)CCC(C)(c1ccc(OS(=O)(=O)c2cccc3c2C=CC(=[N+]=[N-])C3=O)cc1)c1ccc(OS(=O)(=O)c2cccc3c2C=CC(=[N+]=[N-])C3=O)cc1 (centres unmarked) [Compound 8] | 3.80% | very good solubility
8 | COC(C)CCOC(=O)CCC(C)(c1ccc(OS(=O)(=O)c2cccc3c2C=CC(=[N+]=[N-])C3=O)cc1)c1ccc(OS(=O)(=O)c2cccc3c2C=CC(=[N+]=[N-])C3=O)cc1 (centres unmarked) [Compound 9] | 1.54% | very good solubility
9 | CCCOC(=O)C(c1ccc(OS(=O)(=O)c2cccc3c2C=CC(=[N+]=[N-])C3=O)cc1)c1ccc(OS(=O)(=O)c2cccc3c2C=CC(=[N+]=[N-])C3=O)cc1 (centres unmarked) [Compound 19] | 0.95% | –
